According to patent EP0547231B1, “PHOSPHOLIPASE A2 INHIBITOR” (SHIONOGI & CO., LTD., priority 1991, dated 1993):
Counter-ions that a name gives are not always drawn.

biological target: T1, PLA2 (phospholipase A2) (Rattus norvegicus, UniProt P14423); experiment: Phospholipase A2 inhibitory activity (release of free fatty acid from 14C-labelled phosphatidylethanolamine); type: biochemical; details: PLA2 from rat platelets; CaCl2 (3 mM) in Tris-buffer (0.1 M, pH 7.4); 37 °C for 20 minutes
T1 construct: from tissue; host or cells: rat platelets
T1 sequence (P14423 22-146): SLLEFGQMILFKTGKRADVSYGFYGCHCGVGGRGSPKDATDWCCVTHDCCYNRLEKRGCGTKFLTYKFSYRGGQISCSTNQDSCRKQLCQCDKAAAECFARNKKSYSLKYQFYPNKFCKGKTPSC
Method: The compounds of the present invention were tested for their Phospholipase A2 inhibitory activity by the following procedure.
1-Palmitoyl-2-[1-^14C]-linoleoyl L-3-Phosphatidylethanolamine (Amersham, Inc., 59 mCi/mmol) were diluted with L-α-phosphatidylethanolamine (Sigma, Co., from […]) [2,000 dpm/nmol], and the dilution was sonicated. The resultant dilution was used as a substrate. The PLA2 (phospholipase A2) which was used in the test was from rat platelets. The PLA2 and the substrate preparation were added to a solution of CaCl2 (3 mM) in Tris-buffer (0.1 M, pH 7.4), and the mixture was allowed to react at 37 °C for 20 minutes. Then, the reaction was terminated by adding 1.25 ml of Dole's reagent to the reaction mixture and stirring immediately the resultant mixture. To the mixture was added 0.5 ml of distilled water and 0.8 ml of n-heptane, and the mixture was stirred, centrifuged, and the supernatant was taken into another tube. To this supernatant were added an additional 0.8 ml of n-heptane and silica gel, and the mixture was stirred, centrifuged, and the supernatant was taken into vials. Toluene cocktail was added to the vials. The amount of free fatty acid released by PLA2 was determined using a liquid scintillation counter.
Inhibitory activity (%) was estimated by the formula: [(DPM value at the addition of the inhibitor - DPM value without PLA2) / (DPM value with only PLA2 - DPM value without PLA2)] × 100.

SMILES	IC50 [µM]
COc1cc(OC)c(C(=O)Oc2c(C)c(C)c(C(=O)Oc3c(C)c(C)c(C(=O)O)c(OC)c3C)c(OC)c2C)cc1Oc1cc(C)c(OC)c(C(=O)Oc2c(C)c(C)c(C(=O)Oc3c(C)c(C)c(C(=O)O)c(OC)c3C)c(OC)c2C)c1 [Compound 56]	0.035
COc1ccc([S+]([O-])c2ccc(OC)c(C(=O)Oc3c(C)c(C)c(C(=O)Oc4c(C)c(C)c(C(=O)O)c(OC)c4C)c(OC)c3C)c2)cc1C(=O)Oc1c(C)c(C)c(C(=O)Oc2c(C)c(C)c(C(=O)O)c(OC)c2C)c(OC)c1C [Compound 104c, Bis[3-[4'-[(4''-carboxy-3''-methoxy-2'',5'',6''-trimethyl)phenoxycarbony]-3'-methoxy-2',5',6'-trimethyl]-phenoxycarbony-4-methoxyphenyl] sulfoxide]	0.12
COc1c(C)c(O)c(C)c(C)c1C(=O)O [Compound 9]	> 480
COc1c(C)c(OC)c(C(=O)Oc2c(C)c(O)cc(C)c2C(=O)Oc2c(C)c(C)c(C(=O)Oc3c(C)c(C)c(C(=O)O)c(OC)c3C)c(OC)c2C)c(C)c1Oc1ccc(C[C@H](N)C(=O)O)cc1 [Compound 77, [5-[6'-[4''-(4'''-Carboxy-3'''-methoxy-2''',5''',6'''-trimethylphenoxycarbony)-3''-methoxy-2'',5'',6''-trimethylphenoxycarbony]-3'-hydroxy-2',5'-dimethylphenoxycarbony]-2,4-dimethoxy-3,6-dimethylphenyl] [4''''-(2'''''-amino-2'''''-carboxyethyl)phenyl] ether trifluoroacetate]	0.34
COc1c(C)c(OC)c(C(=O)Oc2c(C)c(C)c(C(=O)Oc3c(C)c(C)c(C(=O)O)c(OC)c3C)c(OC)c2C)c(C)c1Cc1c(C)c(C(=O)Oc2c(C)c(C)c(C(=O)Oc3c(C)c(C)c(C(=O)O)c(OC)c3C)c(OC)c2C)c(OC)c(C)c1OC [Compound 44, Bis[5-[4'-(4''-carboxy-3''-methoxy-2'',5'',6''-trimethylphenoxycarbonyl)-3'-methoxy-2',5',6',-trimethylphenoxycarbonyl]-2,4-dimethoxy-3,6-dimethylphenyl] methane]	0.13
COc1ccc(Oc2ccc(OC)c(C(=O)Oc3c(C)c(C)c(C(=O)Oc4c(C)c(C)c(C(=O)O)c(OC)c4C)c(OC)c3C)c2)cc1C(=O)Oc1c(C)c(C)c(C(=O)Oc2c(C)c(C)c(C(=O)O)c(OC)c2C)c(OC)c1C [Compound 120]	0.042
COc1ccc(Sc2ccc(OC)c(C(=O)Oc3c(C)c(C)c(C(=O)Oc4c(C)c(C)c(C(=O)O)c(OC)c4C)c(OC)c3C)c2)cc1C(=O)Oc1c(C)c(C)c(C(=O)Oc2c(C)c(C)c(C(=O)O)c(OC)c2C)c(OC)c1C [Compound 104a, Bis[3-[4'-[(4''-carboxy-3''-methoxy-2'',5'',6''-trimethyl)phenoxycarbony]-3'-methoxy-2',5',6'-trimethyl]-phenoxycarbony-4-methoxyphenyl] sulfide]	0.049
COc1c(C)c(OC(=O)c2c(C)c(C)c(OC(=O)c3cccc(C(=O)Oc4c(C)c(C)c(C(=O)Oc5c(C)c(C)c(C(=O)O)c(OC)c5C)c(OC)c4C)c3)c(C)c2OC)c(C)c(C)c1C(=O)O [Compound 52]	0.16
COc1c(C)c(OCc2ccccc2)c(C)c(C)c1C(=O)O [Compound 8]	> 330
COc1c(C)c(OC)c(C(=O)Oc2cc(C)c(C(=O)Oc3c(C)c(C)c(C(=O)Oc4c(C)c(C)c(C(=O)O)c(OC)c4C)c(OC)c3C)c(O)c2C)c(C)c1Oc1ccc(C[C@H](N)C(=O)O)cc1 [Compound 74, [5-[4'-[4''-(4'''-Carboxy-3'''-methoxy-2''',5''',6'''-trimethylphenoxycarbony)-3''-methoxy-2'',5'',6''-trimethylphenoxycarbony]-3'-hydroxy-2',5'-dimethylphenoxycarbony]-2,4-dimethoxy-3,6-dimethylphenyl] [4''''-(2'''''-amino-2'''''-carboxyethyl)phenyl] ether trifluoroacetate]	0.07
COc1ccc(Sc2ccc(OC)c(C(=O)Oc3c(C)c(C)c(C(=O)O)c(OC)c3C)c2)cc1C(=O)Oc1c(C)c(C)c(C(=O)O)c(OC)c1C [Compound 110b, Bis[3-(4'-carboxy-3'-methoxy-2',5',6'-trimethylphenoxycarbonyl)-4-methoxyphenyl] sulfide]	2.5
COc1c(C)c(OC)c(C(=O)Oc2c(C)c(C)c(C(=O)O)c(OC)c2C)c(C)c1Cc1c(C)c(C(=O)Oc2c(C)c(C)c(C(=O)O)c(OC)c2C)c(OC)c(C)c1OC [Compound 50]	4.6
CCCCOC(=O)c1cc(Sc2ccc(OC)c(C(=O)Oc3c(C)c(C)c(C(=O)O)c(OC)c3C)c2)ccc1OC [Compound 59, n-Butyl 3-[3'-(4''-carboxy-3''-methoxy-2'',5'',6''-trimethylphenoxycarbonyl)-4'-methoxyphenyl]-thio-6-methoxybenzoate]	1.45
COc1c(C)c(OC(=O)c2c(C)c(C)c(OC(=O)/C=C/C(=O)Oc3c(C)c(C)c(C(=O)Oc4c(C)c(C)c(C(=O)O)c(OC)c4C)c(OC)c3C)c(C)c2OC)c(C)c(C)c1C(=O)O [Compound 121, Trans-1,2-bis[4'-(4''-carboxy-3''-methoxy-2'',5'',6''-trimethylphenoxycarbonyl)-3^'-methoxy-2',5',6'-trimethylphenoxycarbony] ethene]	0.33
COc1c(C)c(OC(=O)c2c(C)c(C)c(OC(=O)c3cc(=O)cc(C(=O)Oc4c(C)c(C)c(C(=O)Oc5c(C)c(C)c(C(=O)O)c(OC)c5C)c(OC)c4C)o3)c(C)c2OC)c(C)c(C)c1C(=O)O [Compound 54]	0.88
COc1ccc(Sc2ccc(OC)c(C(=O)Oc3c(C)c(C)c(C(=O)Oc4c(C)c(C)c(C(=O)O)c(OC)c4C)c(OC)c3C)c2)cc1C(=O)O [Compound 108]	2.1
Cc1c(O)c(Cc2c(C)c(C(=O)Oc3c(C)c(C)c(C(=O)Oc4c(C)c(C)c(C(=O)O)c(O)c4C)c(O)c3C)c(O)c(C)c2O)c(C)c(C(=O)Oc2c(C)c(C)c(C(=O)Oc3c(C)c(C)c(C(=O)O)c(O)c3C)c(O)c2C)c1O [Compound 62, Bis[5-[4'-(4''-carboxy-3''-hydroxy-2'',5'',6''-trimethylphenoxycarbonyl)-3'-hydroxy-2',5',6'-trimethylphenoxycarbonyl]-2,4-dihydroxy-3,6-dimethylphenyl] methane]	0.95
COc1ccc(Oc2ccc(OC)c(C(=O)Oc3c(C)c(C)c(C(=O)O)c(OC)c3C)c2)cc1C(=O)Oc1c(C)c(C)c(C(=O)O)c(OC)c1C [Compound 110a, Bis[3-[4'-carboxy-3'-methoxy-2',5',6'-trimethylphenoxycarbonyl)-4-methoxyphenyl] ether]	3.4
COc1ccc(S(=O)(=O)c2ccc(OC)c(C(=O)Oc3c(C)c(C)c(C(=O)Oc4c(C)c(C)c(C(=O)O)c(OC)c4C)c(OC)c3C)c2)cc1C(=O)Oc1c(C)c(C)c(C(=O)Oc2c(C)c(C)c(C(=O)O)c(OC)c2C)c(OC)c1C [Compound 104b, Bis[3-[4'-[(4''-carboxy-3''-methoxy-2'',5'',6''-trimethyl)phenoxycarbony]-3'-methoxy-2',5',6'-trimethyl]-phenoxycarbony-4-methoxyphenyl] sulfone]	0.05
COc1c(C)c(OC)c(C(=O)O)c(C)c1Cc1c(C)c(C(=O)Oc2c(C)c(C)c(C(=O)Oc3c(C)c(C)c(C(=O)O)c(OC)c3C)c(OC)c2C)c(OC)c(C)c1OC [Compound 48]	3
COc1c(C)c(OC(=O)c2c(C)c(C)c(OC(=O)CCC(=O)Oc3c(C)c(C)c(C(=O)Oc4c(C)c(C)c(C(=O)O)c(OC)c4C)c(OC)c3C)c(C)c2OC)c(C)c(C)c1C(=O)O [Compound 122, 1,2-Bis[4'-[4''-carboxy-3''-methoxy-2'',5'',6''-trimethylphenoxycarbonyl)-3'-methoxy-2',5',6'-trimethylphenoxycarbony] ethane]	0.04
